Data taken from patent US9624211B2, “Anti-cancer compounds” (Board of Regents, The University of Texas System, priority 2013, dated 2017).

What was measured:
PC3 cells = assay: Cell cycle by PI staining and flow cytometry; assay type: cell-based, human; conditions: PC3 cells treated for 2 days
Protocol: FIGS. 12A-D. Skp2 inhibitor triggers cell growth suppression and cell cycle arrest at G2/M phase, related to FIG. 4. (FIG. 12A) The impact of Skp2 inhibitor on growth suppression in various cell lines. A panel of cancer cell lines were treated with various doses of Skp2 inhibitor (#25) for 4 days, and viable cell numbers were counted using hemocytometer. Growth inhibition (IC50) by compound #25 was derived from the cell counting using hemocytometer. (FIG. 12B) PC3 cells were treated with or without compound #25 for 2 days and cell cycle were determined by PI staining, followed by flow cytometry analysis. G1 phase=61.3±0.3%, S phase=15.6±0.6% and G2/M phase=20.3±0.3% in DMSO-treated PC3 cells while G1 phase=50.1±0.9%, S phase=13.3±0.8% and G2/M phase=24.5±0.3% in #25-treated PC3 cells. (FIG. 12C) Control- or Skp2-knockdown PC3 cells were treated with or without compound #25 for 2 days and cell cycle were determined by PI staining, followed by flow cytometry analysis. Two clones of Skp2 shRNA were used in this assay. G1 phase=53.1±0.8% and S phase=15.9±0.9% and G2/M phase=26.1±0.6% in control-knockdown PC3 cells, G1 phase=49.5±0.4%, S phase=13.6±0.7% and G2/M phase=29.1±0.5% in one clone of Skp2-silenced PC3 cells, G1 phase=54.5±1.6%, S phase=10.6±0.4% and G2/M phase=28.8±0.2% in another clone of Skp2-silenced PC3 cells. (FIG. 12D) WT or Skp2−/− MEFs were treated with or without compound #25 for 2 days, and cell cycle was determined by PI staining, followed by flow cytometry analysis. G1 phase=50.5±4.6%, S phase=9.1±0.6% and G2/M phase=27.8±0.9% in WT MEFs while G1 phase=27.7±1.3%, S phase=8.2±1.9% and G2/M phase=39.0±1.6% in Skp2−/− MEFs. Results are presented as mean values ±S.D. * indicates p<0.05, ** indicates p<0.01. Results from treatment groups were compared to vehicle-treated group.

Skp2 SCF complex = target: T1, Skp2 SCF complex (Homo sapiens, UniProt Q13309); assay: In vitro Skp2-mediated Akt ubiquitination assay; assay type: biochemical; conditions: recombinant Akt, FIG. 1H
T1 construct: made in house; host or cells: 293T cells; anti-Flag immunoprecipitation, eluted with Flag peptide
Protocol: (§1) In vivo and in vitro ubiquitination assays were performed as described with modification (Lin et al., 2009; Yang et al., 2009). For in vitro ubiquitination assay, recombinant GST-Akt proteins were expressed, purified and eluted from the bacterial lysates of BL21 competent cells. Flag-Skp2 SCF complex were expressed in 293T cells, immunoprecipitated by anti-Flag antibody, and eluted from Protein A/G beads using Flag peptides according to manufacturers' standard procedures. Purified GST-Akt and Flag-SCF proteins were incubated for 3 h at 37° C. in the absence and presence of Skp2 inhibitor. After incubation, protein mixtures were diluted in E1A Buffer and the supernatant fluid was precleared with Protein A/G beads for 1 h, and immunoprecipitated overnight with anti-Flag antibody, after which Protein A/G beads were added for an additional 1 h. Beads were washed 4 times with E1A Buffer. Proteins were eluted in SDS-sample buffer and subjected to immunoblotting analysis. For in vivo ubiquitination assay, 293T cells were transfected with the indicated plasmids and cultured in the absence or presence of Skp2 inhibitor for 48 h. 6 h before harvest, cells were cultured in the presence of MG132. After cell harvest, cells were lysed by the denatured buffer (6M guanidine-HCl, 0.1M Na2HPO4/NaH2PO4, 10 mM imidazole). […]

[1] = test system: Skp2 Trp97Ala and Asp98Ala mutants; assay: In vitro binding of compound to GST-Skp2 mutants by LC-MS/MS; conditions: preexisting Skp2-Skp1 complex
Protocol: (§2) To corroborate this notion, the in vitro binding assay was performed to compare the binding affinity of compound #25 to WT Skp2 and Skp2 mutants (Trp97Ala and Asp98Ala) using LC-MS/MS analysis. Of note, since the nature of recombinant Skp2 protein was unstable in the absence of Skp1 (Li et al., 2005), the GST-Skp2 WT, GST-Skp2 Trp97Ala and GST-Skp2Asp98Ala mutants subjected to LC-MS/MS analysis were co-expressed, purified and preformed complex with Skp1 (FIG. 10A).

WT Skp2 = target: T2, WT Skp2 (Homo sapiens, UniProt Q13309); assay: In vitro binding of compound to GST-Skp2 by LC-MS/MS; conditions: preexisting Skp2-Skp1 complex
T2 construct: made in house
Protocol: as §2

PC-3 cells = assay: Cell survival assay, PC-3; assay type: cell-based, human
Protocol: (§3) For Skp2 inhibitor administration, 5-10×10^3 of cells with were seeded in 12 wells in triplicate, 24 h later, treated with compound #25 (refreshed every two days). Four days later, cells were harvested, stained with trypan blue, and viable cells were counted directly under the microscope using hemocytometer. For doxorubicin treatment, 8×10^3 of PC3 cells with were seeded in 12 wells in triplicate, 24 h later, treated with various dose of compound #25 in the presence or absence of 10 nM doxorubicin or 25 ng/ml cyclophosphamide for four and three days, respectively (refreshed every two days). After treatment, cells were harvested, stained with trypan blue, and viable cells were counted directly under the microscope using hemocytometer. Cellular senescence was determined by assessing SA-b-gal activity using senescence detection kit according to manufacturers' standard procedures (Calbiochem).

U2OS (osteocarcinoma) = assay: Cell survival assay, U2OS; assay type: cell-based, human
Protocol: as §3

[2] = target: T3, Skp2-mediated Akt ubiquitination (Homo sapiens, UniProt Q13309); assay: In vivo Akt ubiquitination assay; assay type: cell-based; conditions: FIG. 1G
T3 construct: expressed in transfected cells; host or cells: 293T
Protocol: as §1

β-TRCP = assay: In vivo ubiquitination assay, β-TRCP substrates; assay type: cell-based; conditions: in the presence of proteasome inhibitor
Protocol: as §1

H3299 (lung) = assay: Cell survival assay, H3299; assay type: cell-based, human
Protocol: as §3

T2 sequence (Q13309 whole entry): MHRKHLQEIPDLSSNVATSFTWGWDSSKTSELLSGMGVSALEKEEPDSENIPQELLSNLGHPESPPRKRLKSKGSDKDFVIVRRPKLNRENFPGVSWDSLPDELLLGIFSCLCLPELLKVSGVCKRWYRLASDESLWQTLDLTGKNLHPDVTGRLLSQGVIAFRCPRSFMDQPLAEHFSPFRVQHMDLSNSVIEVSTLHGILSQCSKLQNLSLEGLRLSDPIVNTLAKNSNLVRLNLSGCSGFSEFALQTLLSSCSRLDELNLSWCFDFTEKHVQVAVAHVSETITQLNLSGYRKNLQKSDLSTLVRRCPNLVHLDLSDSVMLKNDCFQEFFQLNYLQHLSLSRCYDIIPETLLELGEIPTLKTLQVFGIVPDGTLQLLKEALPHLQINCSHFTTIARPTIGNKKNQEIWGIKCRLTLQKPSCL
T1 sequence (Q13309 whole entry, one chain of several): as the sequence (Q13309 whole entry) above
T3 sequence (Q13309 whole entry): as above

## CCc1cc2c(=O)c(-c3nc4ccccc4s3)coc2c(CN2CCCCC2)c1O [compound #25, 3-(1,3-benzothiazol-2-yl)-6-ethyl-7-hydroxy-8-(1-piperidinylmethyl)-4H-chromen-4-one]
PC3 cells
  G1 phase: 50.1±0.9%
  G2/M phase: 24.5±0.3%
  S phase: 13.3±0.8%
Skp2 SCF complex
  Skp2-mediated Akt ubiquitination in vitro: attenuated Skp2-mediated Akt ubiquitination
[1]
  binding to Trp97Ala and Asp98Ala mutants: failed to interact
WT Skp2
  binding to WT Skp2: readily bound
PC-3 cells; PC-3
  cell viability: potent effects on cell viability
PC-3 cells; Skp2-knockdown prostate cancer cells
  viability upon Skp2 silencing: inhibitory effect is compromised
PC-3 cells; control-knockdown prostate cancer cells
  viability of control-knockdown cells: potent inhibitory effect
PC-3 cells; ectopic expression of Skp2 mutants
  cell viability with ectopic Skp2 Trp97Ala or Asp98Ala: attenuated the inhibitory effect
U2OS (osteocarcinoma)
  cell viability: potent suppressive effect on viability
[2]
  Skp2-mediated Akt ubiquitination in cells: inhibited Skp2-mediated Akt ubiquitination
β-TRCP
  β-TRCP-mediated ubiquitination (β-catenin, Snail, IκBα): no appreciable effect
H3299 (lung)
  cell viability: potent suppressive effect on viability
